One test has as its target T1, α2A receptor (Homo sapiens, UniProt P08913).
T1 construct: host or cells: LM(tk-) cells, line L-α2A
T1 sequence (P08913 1-465): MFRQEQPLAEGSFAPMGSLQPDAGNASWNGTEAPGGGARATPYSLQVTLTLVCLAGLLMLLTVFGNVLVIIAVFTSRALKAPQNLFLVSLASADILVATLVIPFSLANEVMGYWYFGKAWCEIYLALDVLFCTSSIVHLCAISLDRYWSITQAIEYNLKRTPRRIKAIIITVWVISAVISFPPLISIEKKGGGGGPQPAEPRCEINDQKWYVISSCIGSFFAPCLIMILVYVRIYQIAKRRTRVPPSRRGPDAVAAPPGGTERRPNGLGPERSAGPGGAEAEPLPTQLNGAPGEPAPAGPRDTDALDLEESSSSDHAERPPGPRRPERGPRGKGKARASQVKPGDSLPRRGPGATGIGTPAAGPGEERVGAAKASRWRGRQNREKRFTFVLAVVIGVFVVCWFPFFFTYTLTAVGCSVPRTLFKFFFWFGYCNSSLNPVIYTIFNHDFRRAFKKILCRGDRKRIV
Nature of the test: Competition binding, [3H]rauwolscine, human α2A receptor. The method, boiled down:
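LM(tk−) lysates, stable α2A/α2B/α2C transfectants; 25 mM glycylglycine pH 7.6 (RT). [3H]rauwolscine 0.5 nM, equilibrium competition; NSB 10 μM phentolamine. GF/B filtration, cell harvester.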

In test [1] the target is T2, α1A Human Adrenergic Receptor (Homo sapiens, UniProt P25100).
T2 construct: The entire coding region of α1A (1719 bp); expressed in transfected cells
T2 sequence (P25100 1-572): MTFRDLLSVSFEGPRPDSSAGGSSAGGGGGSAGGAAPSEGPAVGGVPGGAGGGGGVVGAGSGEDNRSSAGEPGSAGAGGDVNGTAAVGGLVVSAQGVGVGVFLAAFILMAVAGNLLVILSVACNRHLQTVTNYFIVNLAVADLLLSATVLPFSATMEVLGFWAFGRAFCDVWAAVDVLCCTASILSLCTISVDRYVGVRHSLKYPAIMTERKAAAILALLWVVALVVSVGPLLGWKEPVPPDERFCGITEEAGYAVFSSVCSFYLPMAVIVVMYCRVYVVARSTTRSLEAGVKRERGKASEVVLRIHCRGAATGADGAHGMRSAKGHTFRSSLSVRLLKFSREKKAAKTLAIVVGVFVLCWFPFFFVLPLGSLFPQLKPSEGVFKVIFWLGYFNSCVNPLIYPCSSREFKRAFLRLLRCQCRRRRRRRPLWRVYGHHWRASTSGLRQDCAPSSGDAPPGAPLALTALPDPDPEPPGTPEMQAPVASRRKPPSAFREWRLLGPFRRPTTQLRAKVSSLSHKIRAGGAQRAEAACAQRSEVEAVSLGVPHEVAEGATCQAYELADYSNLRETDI
Nature of the test: Radioligand binding, [3H]prazosin, cloned human α1A adrenergic receptor. In a few lines: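 Binding of [3H]prazosin (0.5 nM) was measured at 37° C over 20 min in pH 7.5 Tris/MgCl2/ascorbate buffer, using membrane preparations of LM(tk−) cells expressing cloned human α1A receptor. Filtration through GF/B filters stopped the reaction. 10 μM phentolamine gave nonspecific binding.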

For test [2], the target named is T3, α1B Human Adrenergic Receptor (Homo sapiens, UniProt P35368).
T3 construct: The entire coding region of α1B (1563 bp); expressed in transfected cells
T3 sequence (P35368 1-520): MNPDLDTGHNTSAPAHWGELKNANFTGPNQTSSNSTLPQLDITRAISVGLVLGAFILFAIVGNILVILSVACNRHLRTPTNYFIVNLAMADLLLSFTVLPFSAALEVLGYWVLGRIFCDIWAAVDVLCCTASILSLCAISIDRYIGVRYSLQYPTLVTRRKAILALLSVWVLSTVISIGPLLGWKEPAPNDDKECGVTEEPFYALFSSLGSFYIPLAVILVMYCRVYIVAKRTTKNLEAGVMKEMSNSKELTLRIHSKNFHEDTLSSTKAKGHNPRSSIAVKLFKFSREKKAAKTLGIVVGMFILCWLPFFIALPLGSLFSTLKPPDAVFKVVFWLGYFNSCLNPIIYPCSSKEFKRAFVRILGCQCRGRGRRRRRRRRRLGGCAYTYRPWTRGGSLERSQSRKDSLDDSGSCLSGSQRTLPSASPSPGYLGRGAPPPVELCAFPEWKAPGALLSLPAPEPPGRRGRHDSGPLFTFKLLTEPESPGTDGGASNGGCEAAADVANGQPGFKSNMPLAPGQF
The experiment in a line: Radioligand binding, [3H]prazosin, cloned human α1B adrenergic receptor. The conditions noted are these: cloned human receptor, LM(tk-) cell membranes, mean; for Ki: read-out: PKi alpha-1 1b (converted). In a few lines: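 [3H]prazosin (0.5 nM) binding was run for 20 min at 37° C in pH 7.5 Tris/MgCl2/ascorbate buffer on membranes of LM(tk−) cells stably expressing the cloned receptor. Filtration through GF/B ended the reaction; 10 μM phentolamine gave nonspecific binding.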

Setting [3] is: [3H]rauwolscine, human receptor, LM(tk-) cell lysates, mean, read-out: PKi alpha-2 2a (converted).
Setting [4] is: [3H]prazosin, cloned human receptor, LM(tk-) cell membranes, mean, read-out: PKi alpha-1 1a (converted).

Each structure is given as a SMILES string. Like-named read-outs stand apart in the source and are kept apart here.

On to `CCNC(=O)C1=C(CC)NC(COCCN)=C(C(=O)NCCCN2CCC(C(=O)OCC)(c3ccccc3)CC2)C1c1ccc([N+](=O)[O-])cc1` (stereo not drawn) [Example 192, 2-[(2-Aminoethoxy)methyl]-3-{N-[3-(4-ethoxycarbonyl-4-phenyl-piperidin-1-yl)propyl]}carboxamido-1,4-dihydro-6-ethyl-5-(N-ethyl)carboxamido-4-(4-nitrophenyl)pyridine], for which the figures for the Ki (on α2A receptor (setting [3]); in test [1] (setting [4]); in test [2]) were 3.72 µM, 3.02 µM and 1.86 µM, respectively.

Regarding `CCOC(=O)C1(c2ccccc2)CCN(CCCNC(=O)C2=C(COCCN)NC(CC)=C(C(N)=O)C2c2ccc([N+](=O)[O-])cc2)CC1` (stereo not drawn) [Example 193, 2-[(2-Aminoethoxy)methyl]-5-carboxamido-3-{N-[3-(4-ethoxycarbonyl-4-phenylpiperidin-1-yl)propyl]}carboxamido-1,4-dihydro-6-ethyl-4-(4-nitrophenyl)pyridine], the Ki at α2A receptor (setting [3]) is 1.02 µM; in test [1] (setting [4]) it was 2.88 µM; in test [2], 1.74 µM.

`CCOC(=O)C1(c2ccccc2)CCN(CCCNC(=O)C2=C(COCCN)NC(CC)=C(C(=O)NC)C2c2ccc([N+](=O)[O-])cc2)CC1` (stereo not drawn) [Example 194, 2-[(2-Aminoethoxy)methyl]-3-{N-[3-(4-ethoxycarbonyl-4-phenylpiperidin-1-yl)propyl]}carboxamido-1,4-dihydro-6-ethyl-5-(N-methyl) carboxamido-4-(4-nitrophenyl) pyridine]: the results for the Ki (on α2A receptor (setting [3]); in test [1] (setting [4]); in test [2]) were 3.16 µM, 4.9 µM and 2.69 µM, respectively.

As to `CCOC(=O)C1(c2ccccc2)CCN(CCCNC(=O)C2=C(COCCN)NC(CC)=C(C(=O)O)C2c2ccc([N+](=O)[O-])cc2)CC1` (stereo not drawn) [Example 196, 2-[(2-Aminoethoxy)methyl]-3-{N-[3-(4-ethoxycarbonyl-4-phenylpiperidin-1-yl)propyl]}carboxamido-1,4-dihydro-6-ethyl-4-(4-nitrophenyl)pyridine-5-carboxylic Acid], the Ki at α2A receptor (setting [3]) was 8.32 µM; in test [1] (setting [4]), 6.76 µM; in test [2] it was 3.63 µM.

In the case of `CCOC(=O)C1(c2ccccc2)CCN(CCCNC(=O)C2=C(COCCN)NC(CC)=C(C(=O)OC)C2c2ccc([N+](=O)[O-])cc2)CC1` (stereo not drawn) [Example 197, 2-[(2-Aminoethoxy)methyl]-3-{N-[3-(4-ethoxycarbonyl-4-phenylpiperidin-1-yl)propyl]}carboxamido-1,4-dihydro-6-ethyl-5-methoxycarbonyl-4-(4-nitrophenyl) pyridine], the figures for the Ki (at α2A receptor; in test [1] (PKi alpha-1 1a); in test [2]) were 1.48 µM, 0.251 µM and 0.148 µM, respectively.

As for `CCC1=C(C(N)=O)C(c2ccc([N+](=O)[O-])cc2)C(C(=O)NCCCN2CCC(C(=O)OC)(c3ccccc3)CC2)=C(CC)N1` (stereo not drawn) [Example 200], the Ki was 5.5 µM at α2A receptor, 3.31 µM in test [1] (PKi alpha-1 1a) and 2 µM in test [2].

For the compound `CC1=C(C(N)=O)C(c2ccc([N+](=O)[O-])cc2)C(C(=O)NCCCN2CCC(C(=O)OCCC#N)(c3ccccc3)CC2)=CN1C` (stereo not drawn) [Example 209, 5-Carboxamido-3-{N-[3-(4-(2-cyanoethoxycarbonyl)-4-phenylpiperidin-1-yl)propyl]}carboxamido-1,4-dihydro-1,6-dimethyl-4-(4-nitrophenyl) pyridine], the “PKi alpha-2 2a” value at α2A receptor ([3H]rauwolscine, human receptor, LM(tk-) cell lysates, mean) stood at 5.78. Further, the “PKi alpha-1 1a” value in test [1] ([3H]prazosin, cloned human receptor, LM(tk-) cell membranes, mean) was found to be 5.17. Moreover, the “PKi alpha-1 1b” value in test [2] is given as 5.44.

For the compound `CC1=C(C(N)=O)C(c2ccc([N+](=O)[O-])cc2)C(C(=O)NCCCN2CCC(C(=O)O)(c3ccccc3)CC2)=C(C)N1` (stereo not drawn) [Example 210, 5-Carboxamido-3-{N-[3-(4-carboxy-4-phenylpiperidin-1-yl)propyl]}carboxamido-1,4-dihydro-2,6-dimethyl-4-(4-nitrophenyl)pyridine], the figures for the Ki (at α2A receptor; in test [1] (PKi alpha-1 1a); in test [2]) were 11 µM, 72.4 µM and 44.7 µM, respectively.

Source of the values: patent publication US6608086B2, “Dihydropyridines and new uses thereof” (Synaptic Pharmaceutical Corporation, priority 1993, dated 2003).
